According to patent US6562837B1, “Use of tetrahydroisoquinoline compounds for the treatment of septicemia” (Korea Institute of Science & Technology, priority 1998, dated 2003):

Legend:
[1] = system: acute thrombosis in the pulmonary artery; assay: Acute thrombosis (collagen plus epinephrine i.v.) in mice, recovery from paralysis; type: in vivo
Method: A mixture of collagen (300:μg/kg) plus epinephrine (30:μg/kg) was injected into the tail vein of mice (ICR; […], the same mice were employed in all of the following experiments) to induce massive, acute thrombosis in the pulmonary artery. Thus, an acute thrombosis model, in which mice were paralyzed in 1-3 min after the injection and most of them died within 15 min was prepared. To investigate the effect of the compounds of Chemical Formulas 1 and 2 on the acute thrombosis, either of the compounds was orally administered to mice for 1 or 3 days. The intravenous injection of the mixture of collagen and epinephrine was conducted 1 hour after the final oral administration. An observation was taken to examine the mortality change and the recovery from the paralysis and the results are given in Tables 4 and 5, below.
Most of the mice were paralyzed within 1 min after the injection, following dilation of the pupils, difficult breathing, and convulsions. Most of the mice either died within 5 min or were subjected to paralysis for 15 min or longer. Only a few of them recovered from the paralysis.

[2] = system: thrombus formation in AVS tube; assay: Thrombus formation in arterio-venous shunt (AVS) tube in rats; type: in vivo
Method: An AVS tube was prepared. For this, a scalp vein set was cut into a length of 18 cm, and each end was connected to a 18G syringe needle while a 100% cotton thread 5 cm long was fixed to the center of the tube. Rats were anesthetized with ketamine (250 mg/kg) by injection (i.m.) and underwent laparotomy. An AVS tube filled with saline was installed between the abdominal aorta and the renal vein in such a way that its one syringe needle was inserted in the abdominal aorta and the other syringe needle was inserted in the renal vein. Blood was allowed to pass through the AVS tube so as to form thrombus on the cotton thread. After circulation of blood through the AVS tube for 15 min, the thread was taken out from the AVS tube. The weight of the thrombus formed on the cotton thread was determined by weighing the thread.

α-receptor = assay: Binding affinity to α-adrenoceptor, [3H]prazosin, rat cerebral cortical membrane
Method: For this, the cerebral cortex obtained from rats (Sprague-Dawley, 250±20 g; unless particularly mentioned, the same rats were used in the following experiments) was homogeneously mixed with a 20× buffer (50 mM Tris, 5 mM MgSO4, 1 mM EDTA, 1 mM ascorbic acid, pH 7.7) and then, centrifuged three times at 35,000×g for 15 min and the pellet was stored at −70° C. A solution of 5 mg of the pellet in 1 ml of the buffer was incubated, along with [^3H]prazosin (200 pM) and samples, at 25° C. for 30 min followed by adding 10 ml of a buffer (50 mM Tris, pH 7.7) to quench the binding reaction. The resulting solution was filtered through a Whatman GF/C glass microfiber filter which was then shaken for 2 hours while being completely submerged in a scintillation cocktail. The radioactivity was measured using a scintillation counter (Beckman, LS6500)

## CC(=O)Oc1ccccc1C(=O)O [Aspirin, reference compound]
[1]; 50 mg/kg orally once for three successive days, recovered within 15 min
  Mice Recovered, Number: 11
[1]; 50 mg/kg orally once for three successive days, recovered within 15 min, control 20%
  Mice Recovered, %: 55%
[1]; 50 mg/kg orally once, recovered from thrombotic paralysis within 15 min
  Mice Recovered, Number: 32
[1]; 50 mg/kg orally once, recovered within 15 min, control 17%
  Mice Recovered, %: 52%
[2]; 50 mg/kg orally once a day for successive three days
  % Inhibition of thrombus formation: 12.4%
[2]; 50 mg/kg orally once a day for successive three days, control 42.67 ± 5.381
  Weight (mg) of thrombus: 37.37 ± 7.369 mg
[2]; 50 mg/kg orally once, first series, control 33.61 mg
  % Inhibition of thrombus formation: 40.8%
[2]; 50 mg/kg orally once, first series, control 33.61 ± 7.620
  Weights (mg) of thrombus: 19.89 ± 7.213 mg
[2]; 50 mg/kg orally once, second series, control 39.54 mg
  % Inhibition of thrombus formation: 36.3%
[2]; 50 mg/kg orally once, second series, control 39.54 ± 5.625
  Weights (mg) of thrombus: 25.18 ± 6.725 mg

## COc1cc2nc(N3CCN(C(=O)c4ccco4)CC3)nc(N)c2cc1OC [prazosin, reference compound]
α-receptor
  Kd: 0.134 ± 0.00891 nM
